Where two headings read alike, the source gives them in different places.
Columns and labels:
[1] = biological target: T1, NPP1 (Homo sapiens, UniProt P22413); assay: Inhibition of human NPP1, pNP-TMP as substrate (analogues 9-12); assay type: biochemical
T1 sequence (P22413 1-925): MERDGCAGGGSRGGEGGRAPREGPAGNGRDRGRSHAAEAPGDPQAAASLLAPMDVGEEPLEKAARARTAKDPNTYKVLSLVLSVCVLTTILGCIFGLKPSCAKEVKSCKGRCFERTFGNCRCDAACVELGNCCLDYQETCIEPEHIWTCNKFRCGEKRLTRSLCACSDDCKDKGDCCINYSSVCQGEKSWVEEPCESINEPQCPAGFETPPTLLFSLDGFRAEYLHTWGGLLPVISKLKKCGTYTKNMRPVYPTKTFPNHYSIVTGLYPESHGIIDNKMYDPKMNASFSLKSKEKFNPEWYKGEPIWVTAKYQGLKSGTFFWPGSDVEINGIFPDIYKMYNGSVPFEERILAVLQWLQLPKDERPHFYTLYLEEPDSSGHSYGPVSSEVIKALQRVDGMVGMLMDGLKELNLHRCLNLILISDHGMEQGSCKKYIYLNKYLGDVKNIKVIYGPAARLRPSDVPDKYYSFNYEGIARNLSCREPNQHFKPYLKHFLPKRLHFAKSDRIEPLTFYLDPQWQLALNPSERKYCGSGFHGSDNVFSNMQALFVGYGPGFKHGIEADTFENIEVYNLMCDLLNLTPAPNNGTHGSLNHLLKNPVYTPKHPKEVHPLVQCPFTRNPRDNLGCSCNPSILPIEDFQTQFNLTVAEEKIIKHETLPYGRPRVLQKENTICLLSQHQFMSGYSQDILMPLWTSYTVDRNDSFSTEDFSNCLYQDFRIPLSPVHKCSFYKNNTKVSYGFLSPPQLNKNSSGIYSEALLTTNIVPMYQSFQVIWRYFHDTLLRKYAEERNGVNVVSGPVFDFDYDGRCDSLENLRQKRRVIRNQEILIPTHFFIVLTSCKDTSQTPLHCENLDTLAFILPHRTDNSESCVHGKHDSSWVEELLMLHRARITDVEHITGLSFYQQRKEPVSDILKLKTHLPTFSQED
Procedure: (§1) FIG. 2: Inhibition of NTPDases and NPPs by analogues 9-12 using as substrates ATP (100 μM) for NTPDase1,2,3,8 and pNP-TMP (100 μM) for NPP1,3 (Panel A); and ATP (100 μM) was used as the substrate for NPP1 (Panel B);
Analogues 9-12 were evaluated for their ability to inhibit human NPP1.
(§2) At least 2 independent experiments were performed. In panel A, the activity with 100 μM ATP was set as 100%, which was 287±31, 395±67, 278±22, 119±26 nmol of Pi·min−1·mg of protein−1 for human NTPDase1, -2, -3 and -8, respectively, and the activity with 100 μM pNP-TMP was set as 100% which was 67±5, 21±1 nmol of p-nitrophenol·min−1·mg of protein−1 for human NPP1 and NPP3, respectively. In panel B, the activity with 100 μM ATP was set as 100% which was 34±7 nmol of PPi·min−1·mg of protein−1 for NPP1.

[2] = biological target: T2, human NPP3 (Homo sapiens, UniProt O14638); assay: Inhibition of human NPP3, pNP-TMP as substrate (analogues 9-12); assay type: biochemical; details: analogue at 100 μM; pNP-TMP 100 μM as substrate
T2 sequence (O14638 1-875): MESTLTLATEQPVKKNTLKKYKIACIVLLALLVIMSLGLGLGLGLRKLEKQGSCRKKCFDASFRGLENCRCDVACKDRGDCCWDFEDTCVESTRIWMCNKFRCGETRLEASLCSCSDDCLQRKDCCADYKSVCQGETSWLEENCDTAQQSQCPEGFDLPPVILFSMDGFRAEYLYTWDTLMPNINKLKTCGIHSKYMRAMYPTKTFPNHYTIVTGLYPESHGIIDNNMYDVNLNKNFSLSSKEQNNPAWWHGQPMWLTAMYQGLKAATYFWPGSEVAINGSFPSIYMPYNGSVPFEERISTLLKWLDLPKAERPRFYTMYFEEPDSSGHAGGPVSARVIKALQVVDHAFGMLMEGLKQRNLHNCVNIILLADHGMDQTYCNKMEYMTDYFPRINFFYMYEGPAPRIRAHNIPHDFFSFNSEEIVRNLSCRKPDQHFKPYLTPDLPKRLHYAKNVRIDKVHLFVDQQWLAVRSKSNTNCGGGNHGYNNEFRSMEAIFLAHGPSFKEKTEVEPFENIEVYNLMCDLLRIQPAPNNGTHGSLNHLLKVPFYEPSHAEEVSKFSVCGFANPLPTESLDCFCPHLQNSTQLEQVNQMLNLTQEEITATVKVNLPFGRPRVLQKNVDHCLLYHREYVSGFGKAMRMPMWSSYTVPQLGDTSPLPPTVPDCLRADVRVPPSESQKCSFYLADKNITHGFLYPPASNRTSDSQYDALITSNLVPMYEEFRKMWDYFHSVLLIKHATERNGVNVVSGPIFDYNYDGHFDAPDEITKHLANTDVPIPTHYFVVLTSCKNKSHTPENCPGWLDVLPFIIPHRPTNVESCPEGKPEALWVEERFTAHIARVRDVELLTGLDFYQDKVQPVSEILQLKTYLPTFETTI
Procedure: as §1, §2

[3] = biological target: T1, NPP1; assay: Stability to hydrolysis by human NPP1; assay type: in vitro ADME; details: analogue 100 μM; activity with 100 μM ATP = 100%
Procedure: Uridine 5′-Pα,α-phosphorodithioate analogues, 9-12, were tested for their stability to degradation by NPP1 and NTPDases. These enzymes are involved in the metabolism of extracellular nucleotides. Analogues 9-12 were not hydrolyzed by hNPP1 (Table 2). […] Analogue 10 was hydrolyzed by hNTPDase1, -2 and -3 at 30-39% the rate of ATP and was slightly hydrolyzed by human NTPDase8 at 16% the rate of ATP.
Analogues 9-12 were incubated in the presence of the indicated ectonucleotidase at a concentration of 100 μM. The activity with 100 μM ATP was set as 100%, which was 329±108, 302±34, 263±51, 195±76 nmol of Pi·min−1·mg of protein−1 for NTPDase1, -2, -3 and -8, respectively, and 34±7 nmol for NPP1. Data presented are the mean±SEM of results from two experiments.

[4] = Stability to air-oxidation by 31P-NMR; assay type: physicochemical; details: aqueous solution, constant air flow, RT, 3 weeks
From the text: To evaluate the chemical stability of uridine-5′-Pα,α-dithiophosphate analogues, we measured by 31P-NMR the time-dependent percentage of the analogues remaining under basic and acidic conditions, and due to air-oxidation.
An aqueous solution of 10 was subjected to a constant air flow.

[5] = analogue at 100 μM, pNP-TMP 100 μM as substrate
[6] = pNP-TMP as a substrate, mean±SEM
[7] = pNP-TMP as a substrate, mean±SEM, read-out: Ki (μM), NPP1 inhibition

Row | SMILES | inhibition at 100 µM [1, 5] [%] | IC50 [1, 6] [µM] | Ki [1, 7] [µM] | inhibition of human NPP3 [2] | Relative activity (%) ± SEM of ATP hydrolysis, NPP1 [3] [%] | stability to air-oxidation [4] | inhibition at 100 µM [2] [%] | inhibition of human NPP1 [1, 5] | Ki ([1]; pNP-TMP as the substrate, read-out: Ki, NPP1) [µM]
1 | O=c1ccn([C@@H]2O[C@H](COP(=S)(S)OP(=O)(O)OP(=O)(O)O)[C@@H](O)[C@H]2O)c(=O)[nH]1 (some centres unmarked) [Analogue 10] | 100 | 1.2 ± 0.1 | 0.24 ± 0.02 | no inhibition | 0 | no new signals |  |  | 
2 | O=c1ccn([C@@H]2O[C@H](COP(=S)(S)OP(=O)(O)CP(=O)(O)O)[C@@H](O)[C@H]2O)c(=O)[nH]1 (some centres unmarked) [Analogue 11] |  | 4.3 ± 0.1 | 1.11 ± 0.19 |  | 0 | complete stability | 21 |  | 
3 | O=c1ccn([C@@H]2O[C@H](COP(=S)(S)OP(=O)(O)OP(=O)(O)OP(=S)(S)OC[C@H]3O[C@@H](n4ccc(=O)[nH]c4=O)[C@H](O)[C@@H]3O)[C@@H](O)[C@H]2O)c(=O)[nH]1 (some centres unmarked) [Analogue 12] |  | 0.125 ± 0.004 |  |  | 0 | completely resistant | 27 | effectively blocked | 0.027
